From patent publication EP0833899B1, “CIS-9,10-OCTADECENOAMIDASE” (THE SCRIPPS RESEARCH INSTITUTE, priority 1995, dated 1996)
Like-named read-outs stand apart in the source and are kept apart here.

What was measured:
rats = experiment: effect on spontaneous behavior (sleep induction) after ip injection; type: in vivo
Method: Synthetic cis-9,10-octadecenoamide was injected (ip) into rats in order to test its effect on spontaneous behavior at different doses: 1 (n=2), 2 (n=2), 5 (n=7), 10 (n=10), 20 (n=2), and 50 (n=2) mg, where n = number of rats tested. […] However, at a threshold of 5 mg and above there was a marked effect consisting of an induction of long-lasting motor quiescence associated with eyes closed, sedated behavior characteristic of normal sleep. Also as with normal sleep, the rats still responded to auditory stimuli with orienting reflex and sustained attention toward the source of stimulation. In addition, motor behavior was impaired. The latency to behavioral sedation following administration was about 4 minutes and subjects were normally active again after 1 hour (5 mg), 2 hour (10 mg), or 2.5 hour (20 mg and 50 mg).
(§1) We have compared cis-9,10-octadecenoamide to vehicle and the synthetic analogs listed in Figure 1 to estimate the structural specificity of its sleep-inducing potential. […] More particularly, male Sprague-Dawley rats (300 g at the time of surgery) were implanted under halothane anesthesia (2-3%) with a standard set of electrodes for sleep recordings. This included two screw electrodes placed in the parietal bone over the hippocampus to record the subjects electroencephalogram (EEG) and two wire electrodes inserted in the neck musculature to record postural tone through electromyographic activity (EMG). Rats were housed individually with at libitum access to food and water. The dark-light cycle was controlled (12:12, lights on a 10:00 p.m.). One week after the surgery, rats were habituated to the recording conditions for at least three days. Upon the completion of the habituation period, rats received 2 milliliter (ip) of either: vehicle (5% ethanol/saline solution), cis-9,10-octadecenoamide (10 mg), or oleic acid (10 mg). […] Sleep recordings were visually scored and four stages were determined: wakefulness, slow-wave-sleep 1 (SWS1), slow-wave-sleep 2 (SWS2), and rapid eye movement (REM) sleep.

male Sprague-Dawley rats = experiment: polysomnographic sleep recordings (EEG/EMG) after ip injection; type: in vivo; settings: 10 mg ip, compared to vehicle controls, recorded four hours
Source text: as §1
These increases with respect to slow wave sleep (SWS) were at the expense of waking.

[1] = target: T1, cis-9,10-octadecenoamidase, rat brain membrane fraction (Rattus norvegicus, UniProt P97612); type: biochemical; settings: 1 mM inhibitor, 1000 µM
T1 sequence (P97612 1-579): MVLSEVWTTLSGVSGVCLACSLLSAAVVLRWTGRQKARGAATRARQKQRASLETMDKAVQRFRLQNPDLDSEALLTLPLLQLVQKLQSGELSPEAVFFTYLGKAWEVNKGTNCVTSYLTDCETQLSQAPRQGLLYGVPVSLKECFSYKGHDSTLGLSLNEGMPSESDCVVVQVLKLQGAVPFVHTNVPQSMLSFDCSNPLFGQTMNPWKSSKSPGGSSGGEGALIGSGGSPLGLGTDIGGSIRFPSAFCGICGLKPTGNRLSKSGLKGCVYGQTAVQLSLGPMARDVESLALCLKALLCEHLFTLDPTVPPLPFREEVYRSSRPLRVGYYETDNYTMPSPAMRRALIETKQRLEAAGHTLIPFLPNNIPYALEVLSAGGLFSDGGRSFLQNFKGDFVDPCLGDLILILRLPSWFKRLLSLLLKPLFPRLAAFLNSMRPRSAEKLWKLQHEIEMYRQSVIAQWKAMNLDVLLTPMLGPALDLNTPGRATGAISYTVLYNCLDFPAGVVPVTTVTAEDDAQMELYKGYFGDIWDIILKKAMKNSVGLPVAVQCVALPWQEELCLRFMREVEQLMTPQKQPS
Method: In each case the enzymic reaction is performed is a separate reaction vessel and the product is spotted onto a TLC plate.
The following protocol is used for assaying cis-9,10-octadecenoamide hydrolysis activity: To […] of 125 mM Tris·HCl, pH 9.0 was added successively 70 mL protein fraction (1 mg/mL protein concentration for brain membrane fraction, 2 mg/mL for brain soluble fraction, 5 mg/mL for pancreatic microsomal preparation), 6 mL of ethanol, and 4 mL of ^14C-cis-9,10-octadecenoamide (in ethanol, 0.25 mCi/mL). Each reaction mixture is incubated for 4 hours at 37°C and then partitioned between EtOAc and 0.07 M HCl. The EtOAc layer is evaporated to dryness and the remaining residue is dissolved in 15 mL ethanol. TLC fractions are taken from this ethanol stock. TLC plates are treated with EN^3HANCE spray and developed at -78°C for 2 hours.

[2] = target: T2, amidase activity which catalyzes both the hydrolysis and synthesis of arachidonylethanolamide (anandamide), membrane subcellular fractions from neuroblastoma, g (Rattus norvegicus, UniProt P97612); settings: 1.5 mM concentration; cited from earlier work
T2 sequence (P97612 1-579): T1 sequence (P97612 1-579)

With CCCCCCCC/C=C\CCCCCCCC(=O)O [oleic acid, Oleic acid, reference compound] the overt behavioral effect (rats; rats, compared with cis-9,10-octadecenoamide) was “nor oleic acid (5) showed any overt behavioral effect”.
For CCCCCCCC/C=C\CCCCCCCCCCCC(N)=O [Compound 6, Erucamide], the “pharmacological effects compared with cis-9,10-octadecenoamide” value (rats; rats) was “substantial reduction in both the degree and duration of the pharmacological effects”.
With CCCCCCCC/C=C\CCCCCCCC(N)=O [cis-9,10-octadecenoamide, Cis-9,10-octadecenoamide] the “mean duration of the SWS individual periods” value (male Sprague-Dawley rats) was “increase”, the “total time of slow wave sleep (SWS)” value (male Sprague-Dawley rats) was “increase” and the “time after which subjects were normally active again” value (rats; 5 mg ip, rats) was 1 h. For the same compound, the “time after which subjects were normally active again” value (rats; 10 mg ip, rats) was 2 h, the “duration of the biological effect (sleep-inducing properties)” value (rats; 10 mg per rat) was “two” and the “time after which subjects were normally active again” value (rats; 20 mg ip, rats) was 2.5 h. The “time after which subjects were normally active again” value (rats; 50 mg ip, rats) was 2.5 h, the “latency to behavioral sedation following administration” value (rats; ip, rats) was “about 4 minutes” and the “threshold dose for induction of long-lasting motor quiescence, sedated behavior characteristic of normal sleep” value (rats; ip, rats) was 5 mg. For the same compound, the “effect on spontaneous behavior” value (rats; lower doses (1 and 2 mg), ip, rats) was “no overt effect on spontaneous behavior”.
For O=S(=O)(F)Cc1ccccc1 [phenylmethylsulfonyl fluoride], the “inhibition of enzymatic activity (hydrolysis of cis-9,10-octadecenoamide to oleic acid)” value [1] is given as “completely inhibited”, the “inhibition of enzymatic activity (hydrolysis of cis-9,10-octadecenoamide to oleic acid)” value ([1]; listed as PMSF) is given as “inhibited” and the “inhibition of the amidase activity (anandamide hydrolysis)” value [2] is given as “completely inhibited”.
In the case of CCCCCCCCC/C=C\CCCCCCC(N)=O [Compound 3, Cis-8,9-octadecenoamide], the “pharmacological effects compared with cis-9,10-octadecenoamide” value (rats; rats) is reported as “substantial reduction in both the degree and duration of the pharmacological effects”.
With CCCCCC/C=C\CCCCCCCCCC(N)=O [Compound 4, Cis-11,12-octadecenoamide] the “pharmacological effects compared with cis-9,10-octadecenoamide” value (rats; rats) was “substantial reduction in both the degree and duration of the pharmacological effects”.
